The results in this text go back to patent US9499550B2 (BRISTOL-MYERS SQUIBB COMPANY, priority 2012, dated 2016).

The subject of experiment [1] is HCV genotype 1a (H77 strain) replicon in HUH-7 cells. Nature of the experiment: HCV replicon luciferase reporter assay, genotype 1a. Format: cell-based. The conditions noted are these: Hepatitis C virus, Huh-7, 72 h, HCV genotype 1a replicon luciferase, 3 days incubation. In a few lines: (§1)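 Replicon inhibition for both genotypes was measured as Renilla luciferase signal (EnduRen, 7.5 μM final, 2 h) after 3-day, 37° C exposure of replicon-bearing HUH-7 cells in 4% FCS DMEM, 0.5% DMSO. The 1b construct carries S1179I; the 1a H77 construct carries P1496L and S2204I. Twenty-point, 3-fold dilutions were fitted four-parametrically for EC50, and CC50 was taken from multiplexed Cell Titer-Blue.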
In general terms: In antiviral work, replicon cells carry a viral genome segment that copies itself.

Experiment [2] deals with HCV genotype 1b (Con1) replicon in HUH-7 cells. The experiment in a line: HCV replicon luciferase reporter assay, genotype 1b. Conditions: Hepatitis C virus, Huh-7, 72 h, HCV genotype 1b replicon luciferase, 3 days incubation. It counts as cell-based. In a few lines: as §1

SMILES strings stand for the structures. pEC50: −log10 of the molar value. Where two headings read alike, the source gives them in different places.

In the case of `CC[C@@H]1C[C@@H](C)CC/C=C\[C@@H]2C[C@@]2(C(=O)NS(=O)(=O)C2CC2)NC(=O)[C@@H]2C[C@@H](Oc3nccc4c5c(ccc34)OCCO5)CN2C(=O)[C@H]1NC(=O)OC(C)(C)C(F)(F)F` [Compound 5337, 1,1,1-trifluoro-2-methylpropan-2-yl((2R,6S,7R,9S,13aS,14aR,16aS,Z)-14a-((cyclopropylsulfonyl)carbamoyl)-2-((2,3-dihydro-[1,4]dioxino[2,3-f]isoquinolin-7-yl)oxy)-7-ethyl-9-methyl-5,16-dioxo-1,2,3,5,6,7,8,9,10,11,13a,14,14a,15,16,16a-hexadecahydrocyclopropa[e]pyrrolo[1,2-a][1,4]diazacyclopentadecin-6-yl)carbamate], the pEC50 in experiment [1] (read-out: LE_1a (EC50, range)) is 6.99 to 8.32; in experiment [2] (read-out: LE_1b (EC50, range)), greater than 8.26.

As to `CC[C@@H]1C[C@H](C)CC/C=C\[C@@H]2C[C@@]2(C(=O)NS(=O)(=O)C2CC2)NC(=O)[C@@H]2C[C@@H](Oc3nccc4c5c(ccc34)OCCO5)CN2C(=O)[C@H]1NC(=O)OC(C)(C)C(F)(F)F` [Compound 5338, 1,1,1-trifluoro-2-methylpropan-2-yl((2R,6S,7R,9R,13aS,14aR,16aS,Z)-14a-((cyclopropylsulfonyl)carbamoyl)-2-((2,3-dihydro-[1,4]dioxino[2,3-f]isoquinolin-7-yl)oxy)-7-ethyl-9-methyl-5,16-dioxo-1,2,3,5,6,7,8,9,10,11,13a,14,14a,15,16,16a-hexadecahydrocyclopropa[e]pyrrolo[1,2-a][1,4]diazacyclopentadecin-6-yl)carbamate], the pEC50 is greater than 8.26 in experiment [1] (read-out: LE_1a (EC50, range)) and greater than 8.26 in experiment [2] (read-out: LE_1b (EC50, range)).

Turning to `CC[C@@H]1C[C@@H](C)CC/C=C\[C@@H]2C[C@@]2(C(=O)NS(=O)(=O)C2(C)CC2)NC(=O)[C@@H]2C[C@@H](Oc3nccc4c5c(ccc34)OCCO5)CN2C(=O)[C@H]1NC(=O)OC(C)(C)C` [Compound 5339, tert-butyl ((2R,6S,7R,9S,13aS,14aR,16aS,Z)-2-((2,3-dihydro-[1,4]dioxino[2,3-f]isoquinolin-7-yl)oxy)-7-ethyl-9-methyl-14a-(((1-methylcyclopropyl)sulfonyl)carbamoyl)-5,16-dioxo-1,2,3,5,6,7,8,9,10,11,13a,14,14a,15,16,16a-hexadecahydrocyclopropa[e]pyrrolo[1,2-a][1,4]diazacyclopentadecin-6-yl)carbamate], the pEC50 in experiment [1] (read-out: LE_1a (EC50, range)) was 6.99 to 8.32; in experiment [2] (read-out: LE_1b (EC50, range)), greater than 8.26.

Consider `CC[C@@H]1C[C@H](C)CC/C=C\[C@@H]2C[C@@]2(C(=O)NS(=O)(=O)C2(C)CC2)NC(=O)[C@@H]2C[C@@H](Oc3nccc4c5c(ccc34)OCCO5)CN2C(=O)[C@H]1NC(=O)OC(C)(C)C` [Compound 5340, tert-butyl ((2R,6S,7R,9R,13aS,14aR,16aS,Z)-2-((2,3-dihydro-[1,4]dioxino[2,3-f]isoquinolin-7-yl)oxy)-7-ethyl-9-methyl-14a-(((1-methylcyclopropyl)sulfonyl)carbamoyl)-5,16-dioxo-1,2,3,5,6,7,8,9,10,11,13a,14,14a,15,16,16a-hexadecahydrocyclopropa[e]pyrrolo[1,2-a][1,4]diazacyclopentadecin-6-yl)carbamate], for which the pEC50 is greater than 8.26 in experiment [1] (read-out: LE_1a (EC50, range)) and greater than 8.26 in experiment [2] (read-out: LE_1b (EC50, range)).

Regarding `CC[C@@H]1C[C@H](C)CC/C=C\[C@@H]2C[C@@]2(C(=O)NS(=O)(=O)C2CC2)NC(=O)[C@@H]2C[C@@H](Oc3nccc4c5c(ccc34)OCCO5)CN2C(=O)[C@H]1NC(=O)OC(C)(C)C` [Compound 5341, tert-butyl ((2R,6S,7R,9R,13aS,14aR,16aS,Z)-14a-((cyclopropylsulfonyl)carbamoyl)-2-((2,3-dihydro-[1,4]dioxino[2,3-f]isoquinolin-7-yl)oxy)-7-ethyl-9-methyl-5,16-dioxo-1,2,3,5,6,7,8,9,10,11,13a,14,14a,15,16,16a-hexadecahydrocyclopropa[e]pyrrolo[1,2-a][1,4]diazacyclopentadecin-6-yl)carbamate], the pEC50 in experiment [1] (read-out: LE_1a (EC50, range)) is greater than 8.26; in experiment [2] (read-out: LE_1b (EC50, range)), greater than 8.26.

In the case of `C[C@@H]1CC/C=C\[C@@H]2C[C@@]2(C(=O)NS(=O)(=O)C2(CF)CC2)NC(=O)[C@@H]2C[C@@H](Oc3nccc4c5c(ccc34)OCCO5)CN2C(=O)[C@@H](NC(=O)OC(C)(C)C(C)(F)F)[C@H](C)C1` [Compound 5342], the pEC50 is greater than 8.26 in experiment [1] (GETYPE1A, read-out: LE_1a (EC50, range)) and greater than 8.26 in experiment [2] (GETYPE1B, read-out: LE_1b (EC50, range)).

As for `COc1ccc2c(O[C@@H]3C[C@H]4C(=O)N[C@]5(C(=O)NS(=O)(=O)C6(C)CC6)C[C@H]5/C=C\CC[C@@H](C)C[C@@H](C)[C@H](NC(=O)OC(C)(C)C)C(=O)N4C3)nc(-c3ccc(OC(C)C)cc3)c(OC)c2c1` [Compound 5344, tert-butyl ((2R,6S,7R,9R,13aS,14aR,16aS,Z)-2-((3-(4-isopropoxyphenyl)-4,6-dimethoxyisoquinolin-1-yl)oxy)-7,9-dimethyl-14a-(((1-methylcyclopropyl)sulfonyl)carbamoyl)-5,16-dioxo-1,2,3,5,6,7,8,9,10,11,13a,14,14a,15,16,16a-hexadecahydrocyclopropa[e]pyrrolo[1,2-a][1,4]diazacyclopentadecin-6-yl)carbamate], the pEC50 in experiment [1] (read-out: LE_1a (EC50, range)) is greater than 8.26; in experiment [2] (read-out: LE_1b (EC50, range)) it was greater than 8.26.

Take `COc1ccc2c(O[C@@H]3C[C@H]4C(=O)N[C@]5(C(=O)NS(=O)(=O)C6(C)CC6)C[C@H]5/C=C\CC[C@H](C)C[C@@H](C)[C@H](NC(=O)OC(C)(C)C(C)(F)F)C(=O)N4C3)nc(-c3ccc(OC(C)C)cc3)c(OC)c2c1` [Compound 5345, 3,3-difluoro-2-methylbutan-2-yl((2R,6S,7R,9S,13aS,14aR,16aS,Z)-2-((3-(4-isopropoxyphenyl)-4,6-dimethoxyisoquinolin-1-yl)oxy)-7,9-dimethyl-14a-(((1-methylcyclopropyl)sulfonyl)carbamoyl)-5,16-dioxo-1,2,3,5,6,7,8,9,10,11,13a,14,14a,15,16,16a-hexadecahydrocyclopropa[e]pyrrolo[1,2-a][1,4]diazacyclopentadecin-6-yl)carbamate]: the pEC50 in experiment [1] (read-out: LE_1a (EC50, range)) is 6.99 to 8.32; in experiment [2] (read-out: LE_1b (EC50, range)), greater than 8.26.

As for `COc1ccc2c(O[C@@H]3C[C@H]4C(=O)N[C@]5(C(=O)NS(=O)(=O)C6(C)CC6)C[C@H]5/C=C\CC[C@@H](C)C[C@@H](C)[C@H](NC(=O)OC(C)(C)C(C)(F)F)C(=O)N4C3)nc(-c3ccc(OC(C)C)cc3)c(OC)c2c1` [Compound 5346, 3,3-difluoro-2-methylbutan-2-yl((2R,6S,7R,9R,13aS,14aR,16aS,Z)-2-((3-(4-isopropoxyphenyl)-4,6-dimethoxyisoquinolin-1-yl)oxy)-7,9-dimethyl-14a-(((1-methylcyclopropyl)sulfonyl)carbamoyl)-5,16-dioxo-1,2,3,5,6,7,8,9,10,11,13a,14,14a,15,16,16a-hexadecahydrocyclopropa[e]pyrrolo[1,2-a][1,4]diazacyclopentadecin-6-yl)carbamate], the negative logarithm of the EC50 (pEC50) in experiment [1] (read-out: LE_1a (EC50, range)) was greater than 8.26; in experiment [2] (read-out: LE_1b (EC50, range)) it was greater than 8.26.

As to `COc1ccc2c(O[C@@H]3C[C@H]4C(=O)N[C@]5(C(=O)NS(=O)(=O)C6(C)CC6)C[C@H]5/C=C\CC[C@@H](C)C[C@@H](C)[C@H](NC(=O)OC(C)(C)C(F)(F)F)C(=O)N4C3)nc(-c3ccc(OC(C)C)cc3)c(OC)c2c1` [Compound 5348, 1,1,1-trifluoro-2-methylpropan-2-yl((2R,6S,7R,9R,13aS,14aR,16aS,Z)-2-((3-(4-isopropoxyphenyl)-4,6-dimethoxyisoquinolin-1-yl)oxy)-7,9-dimethyl-14a-(((1-methylcyclopropyl)sulfonyl)carbamoyl)-5,16-dioxo-1,2,3,5,6,7,8,9,10,11,13a,14,14a,15,16,16a-hexadecahydrocyclopropa[e]pyrrolo[1,2-a][1,4]diazacyclopentadecin-6-yl)carbamate], the pEC50 in experiment [1] (read-out: LE_1a (EC50, range)) was greater than 8.26; in experiment [2] (read-out: LE_1b (EC50, range)), greater than 8.26.

As to `COc1ccc2c(O[C@@H]3C[C@H]4C(=O)N[C@]5(C(=O)NS(=O)(=O)C6(C)CC6)C[C@H]5/C=C\CC[C@H](C)C[C@@H](C)[C@H](NC(=O)O[C@H](C)C(F)(F)F)C(=O)N4C3)nc(-c3ccc(OC(C)C)cc3)c(OC)c2c1` [Compound 5349, (R)-1,1,1-trifluoropropan-2-yl ((2R,6S,7R,9S,13aS,14aR,16aS,Z)-2-((3-(4-isopropoxyphenyl)-4,6-dimethoxyisoquinolin-1-yl)oxy)-7,9-dimethyl-14a-(((1-methylcyclopropyl)sulfonyl)carbamoyl)-5,16-dioxo-1,2,3,5,6,7,8,9,10,11,13a,14,14a,15,16,16a-hexadecahydrocyclopropa[e]pyrrolo[1,2-a][1,4]diazacyclopentadecin-6-yl)carbamate], the pEC50 in experiment [1] (read-out: LE_1a (EC50, range)) was 6.99 to 8.32; in experiment [2] (read-out: LE_1b (EC50, range)) it was greater than 8.26.

With `COc1ccc2c(O[C@@H]3C[C@H]4C(=O)N[C@]5(C(=O)NS(=O)(=O)C6(C)CC6)C[C@H]5/C=C\CC[C@@H](C)C[C@@H](C)[C@H](NC(=O)O[C@H](C)C(F)(F)F)C(=O)N4C3)nc(-c3ccc(OC(C)C)cc3)c(OC)c2c1` [Compound 5350, (R)-1,1,1-trifluoropropan-2-yl ((2R,6S,7R,9R,13aS,14aR,16aS,Z)-2-((3-(4-isopropoxyphenyl)-4,6-dimethoxyisoquinolin-1-yl)oxy)-7,9-dimethyl-14a-(((1-methylcyclopropyl)sulfonyl)carbamoyl)-5,16-dioxo-1,2,3,5,6,7,8,9,10,11,13a,14,14a,15,16,16a-hexadecahydrocyclopropa[e]pyrrolo[1,2-a][1,4]diazacyclopentadecin-6-yl)carbamate], the pEC50 in experiment [1] (read-out: LE_1a (EC50)) is 8.67; in experiment [1] (read-out: LE_1a (EC50, range)), greater than 8.26; in experiment [2] (read-out: LE_1b (EC50)), 8.83; in experiment [2] (read-out: LE_1b (EC50, range)) it was greater than 8.26.

As usually defined, the pEC50 is −log10 of the EC50, conventionally taken in molar units.
